Assay results taken from US20240285534A1, “CO-AMORPHOUS SOLID FORMS OF FLAVONOIDS” (ALPARIS, S.A. de C.V., priority 2022, published 2024).

What was measured:
[1] = Solubility test in water (supersaturated solutions); format: physicochemical; conditions: 22 mg added to 0.5 ml of water
Method: Supersaturated solutions of naringenin and NRG:ARG 1:3 NSF were prepared from 0.5 ml of water.

[2] = Wen et al., Molecules 2010; cited from earlier work

dissolution in water [1]: practically it did not dissolve at all
Structure (SMILES): O=C1C[C@@H](c2ccc(O)cc2)Oc2cc(O)cc(O)c21 [naringenin, Naringenin]
reported solubility [2]: 4.38 µg/mL
